The source of these data is patent US8252768B2, “Designer therapy of pancreatic tumors” (University of Miami, priority 2006, dated 2012).

Read-outs that look alike come from different tables or passages of the source. Marks after values point to notes of the source that are not given here.

One data set addresses T1, cytidine deaminase (CD) (Homo sapiens, UniProt P32320).
T1 construct: Crude extracts of PC-3 cells in culture were prepared as described above; endogenous in cells; host or cells: PC-3 cells (crude extract supernatant)
Briefly: Competition assay for substrates of cytidine deaminase, crude extracts of PC-3 cells. Format: biochemical. The conditions noted are these: for substrate for cytidine deaminase (in words): competition studies, human tumor cell extracts. As for the experimental part: The crude enzyme extract (the supernatant of a 10 minute 14,000×g centrifugation) was then added. When cytidine was used as substrate, assays were conducted with benzacyclouridine to inhibit uridine phosphorylases. […] After 0, 15, and 30 minutes, the reaction was stopped and denatured protein removed as above for dC Kinase. […] Aliquots were then spotted on PE cellulose TLC sheets and the reactants separated with a solvent system composed of isopropanol:HCl:H2O (170:41:39). […] The nucleosides were visualized under U.V. light and the spots cut out and counted. […] Enzyme activity was expressed as nmole formed in 30 min/mg/protein.
Competition assays to determine Substrate Specificity: Crude extracts of PC-3 cells in culture were prepared as described above. Two concentrations of crude extract were utilized for the studies as determined from the analysis of protein.
The assays were run for 0, 15, and 30 minutes.

The subject of data set [1] is PC-3 cells. Nature of the data set: Radiosensitization of cells in culture (Cobalt 60, clonogenic survival). Format: cell-based, human. To be noted: for effect of thymidine on radiosensitization (in words) / effect of tetrahydrouridine (H4U) on radiosensitization (in words): cells in culture. As for the experimental part: (§1) Toxicity and Radiation Studies: The methods using clonogenic assays described by Perez and Greer (Int. J. Rad. Oncology: Biology, Physics 12, 1523-1527, 1986—incorporated herein by reference in its entirety) were followed.
(§2) Irradiation of Cells in Culture: 2×10^5 cells were plated in 25 cm^2 flasks and grown for 18 hr at 37° C. in a humidified 5% CO2 atmosphere. The medium was then removed and replaced with medium containing the appropriate drug concentrations and incubated for 72 hrs then removed and the cell monolayers were rinsed twice with PBS. The flasks were then filled with 50 ml of radiation medium (3 parts RPMI 1640 and 7 parts PBS plus antibiotics and glutamine). The cells were then irradiated using a Cobalt 60 irradiator. The cell monolayers were placed 35 cm away from the source and irradiated for appropriate times according to the dose rate. The dose rate was calculated, at this distance, using ionization chambers. Attenuation factors due to the polystyrene flask (0.9923) and the medium (H2O=0.8715) were considered in calculating the exposure period.
(§3) After irradiation the cell monolayers were washed again, replenished with growth media, and incubated for 1½ hours. The cell monolayers were then trypsinized and the cells serially diluted, appropriate dilutions were then plated in 60 mm dishes and incubated for 7-9 days at 37° C. and CO2. At the end of this period the cells were stained with crystal violet and the colony forming ability determined by considering 25 or more normal cells as a viable colony. The viabilities were determined and the appropriate survival curves derived. All conditions were done in duplicate using two flasks treated under identical conditions.

The target of data set [2] is deoxycytidine kinase (dCK) (Homo sapiens, UniProt P27707). Nature of the data set: Competition assay for substrates of deoxycytidine kinase, crude extracts of PC-3 cells. To be noted: for substrate for deoxycytidine kinase (in words): competition studies, human tumor cell extracts; for inhibition at 250 µM: read-out: % Inhibition (dCK).
Sequence of deoxycytidine kinase (dCK) (P27707 whole entry): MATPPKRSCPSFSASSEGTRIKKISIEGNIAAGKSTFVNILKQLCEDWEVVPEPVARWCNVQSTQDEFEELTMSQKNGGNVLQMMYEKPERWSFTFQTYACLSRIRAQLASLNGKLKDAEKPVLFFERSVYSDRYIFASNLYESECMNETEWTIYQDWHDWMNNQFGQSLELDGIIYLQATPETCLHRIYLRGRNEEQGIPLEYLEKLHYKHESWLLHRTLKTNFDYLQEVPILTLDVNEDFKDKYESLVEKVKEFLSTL
In another data set the test system is uridine/cytidine kinase. Nature of the data set: Competition assay for substrates of uridine/cytidine kinase, crude extracts of T24 cells. Type of data set: biochemical, human. As for the experimental part:
2 mM dithiothreitol (DTT) and 0.5 mM phenylmethylsulfanyl fluoride were added just before extraction. The tissue sample was homogenized in a Dounce glass homogenizer and then sonicated for 3 five-second pulses in a Branson Sonifier with a micro-tip at 25 KHz to disrupt the cells. During homogenization and sonication the extract was kept cold throughout the procedures. The tissue extract was then centrifuged at 14,000×g at 4° C. for 15 min., and the supernatant (the crude enzyme extract) was removed. The supernatant was sheared 20 times on ice utilizing a 1 cc syringe with a 27 G½ needle to reduce viscosity. […] 2 mM DTT and 340 μM H4U were added just before the assay. Finally, to the reaction mixture, 5 μl 200 mM creatine phosphate and creatine phosphokinase (0.5 unit/μl) was added to 150 μl of the section mixture. […] H2O bath for 1 minute before 20 μl of the crude enzyme extract was added to initiate the reaction. […] At 0, 30 and 60 minutes the reaction mixture, divided in separate tubes, was heated in a boiling water bath for 2 minutes to terminate the reaction. Denatured protein was then removed by centrifugation of the sample for 2 minutes at 14,000×g. The amount of nucleotide formed was determined by spotting 20 μl aliquots of the reaction mixture onto DE-81 2.2 cm Whatman filter discs. After air drying, the unphosphorylated substrate nucleoside was removed by washing twice for 10 min. in 20 mM ammonium formate and twice for 5 min. in deionized H2O with gentle stirring. A control, lacking the crude enzyme extract was included with each determination. The washed papers were dried under a heat lamp and then placed into individual scintillation vials, eluted for 30 min. in 1 ml of 0.1M HCl-0.1M KCL and then vortexed in 5 ml of scintillation fluid and counted. Enzyme activity was expressed as pmoles/min/mg protein.
When uridine was utilized as substrate, benzacyclouridine was added to prevent the catabolism of the substrate by uridine phosphorylase and tetrahydrouridine was omitted.

A further data set deals with T24 cells. Briefly: Radiosensitization of cells in culture (Cobalt 60, clonogenic survival). Format: cell-based, human. As for the experimental part:
as §1, §2, §3

In data set [3] the test system is PC-3 cells. Briefly: Cytotoxicity (clonogenic) assay, 72 h drug exposure. Format: cell-based, human. As for the experimental part: as §1
Cytotoxicity Assays: 5×10^5 cells were plated in 60 mm tissue culture dishes in 5 mls of the optimal growth media for the particular cell line in an humidified 95% air-5% CO2 atmosphere. The plates were incubated for 18-20 hours to allow for attachment and log-phase growth to begin. At the end of this period the growth medium was aspirated and replaced with […]. Four times (4×) concentrated solutions were prepared and then 1 ml was added to the plates; and growth media were then added to a total volume of […]. The plates were then incubated for 72 hours and the cells harvested by trypsinization. The cells were then serially diluted in growth medium replated into 60 mm dishes and incubated for 6 to 9 days depending on the cell line. After this incubation period, the media was aspirated and the colonies were washed twice with a PBS solution. The colonies were then stained with a 0.2% crystal violet-20% ethanol solution for 5 min. the stain was removed, the colonies were washed and air dried. A viable colony was one consisting of 25 or more normal appearing cells and was considered to have arisen from a single cell. The colonies were counted under a dissecting microscope. Two to three dilutions for every condition were plated. Dishes containing 30-300 colonies were used in the calculation and all conditions were done in duplicate.

In a further data set the target is T2, dCMP deaminase (Mus musculus, UniProt Q8K2D6).
T2 construct: deaminase activity of tumor, serum and other tissues assayed 30 min after H4U; from tissue; host or cells: tumor (Lewis lung carcinoma), serum and other tissues of BD2F1 mice
T2 sequence (Q8K2D6 1-178): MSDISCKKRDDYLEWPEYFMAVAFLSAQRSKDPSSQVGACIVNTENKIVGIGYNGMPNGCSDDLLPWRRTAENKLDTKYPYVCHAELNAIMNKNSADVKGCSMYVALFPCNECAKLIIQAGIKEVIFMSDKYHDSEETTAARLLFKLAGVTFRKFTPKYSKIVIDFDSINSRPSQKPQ
Nature of the data set: Inhibition of dCMP deaminase after H4U in mice bearing Lewis lung carcinoma. Format: in vivo, BD2F1 mice. The conditions noted are these: 30 min. As for the experimental part: dCMP Deaminase Activity: The crude enzyme extract was prepared as described in A. The reaction was carried out in 60 mM Tris HCl, pH 8.0, and 50 μm dCTP, 2.5 mM MgCl2, 30 mM NaF, and 80% H2O to which dCMP (^3H labeled) was added to a final concentration of 2 mM; 20 μl of enzyme extract was added to initiate the reaction giving a total volume of […]. […] A control lacking enzyme was included with each determination. The reaction was terminated as described above in at 0, 30 and 45 minutes and denatured protein was removed by centrifugation as described above. To 10 μl of the supernatant, 6 μl of a 0.03M solution of the carrier nucleotides, dCMP and dUMP were added so that the reactants can be visualized under a UV lamp. Chromatographic isolation of the products was carried out in 2 different solvent systems: A) Baker DEAE Cellulose TLC sheets in 0.01N HCl for 35 min. […] Each appropriate area of the thin layer sheets (where dCMP and dUMP were separated), were cut into small pieces and placed in separate vials and extracted with 1N HCl (1 ml) for 30 minutes. Scintillation cocktail was added (5 ml) to the vials which were vortexed prior to counting. The specific activity was expressed as nmoles/min/mg protein.

Another data set has as its system Lewis lung carcinoma. Briefly: Mean day of death (T/C), Lewis lung carcinoma in mice. Type of data set: in vivo, BD2F1 mice. As for the experimental part: ; The efficacy of the drug, F3methyldC followed the pattern of Selectivity. The mean day of death (Tumor/Control) was 1.3, 1.6, 1.8 and 1.4 for 10, 25, 50 and 75 mg/kg H4U, respectively. […].

T1 sequence (P32320 whole entry): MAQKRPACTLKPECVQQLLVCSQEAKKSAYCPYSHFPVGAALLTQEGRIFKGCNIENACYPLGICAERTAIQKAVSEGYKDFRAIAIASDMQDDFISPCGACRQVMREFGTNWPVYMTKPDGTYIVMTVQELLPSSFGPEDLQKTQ

`Nc1nc(=O)n([C@H]2C[C@H](O)[C@@H](CO)O2)cc1Br` [5-BrdC, 5-Bromo-2′-deoxycytidine]: the “substrate for cytidine deaminase (in words)” value at cytidine deaminase (CD) is “good substrates”. Moreover, the inhibition (commonly the drop in the measured response relative to a control, in per cent) at cytidine deaminase (CD) (substrate 3H-Cytidine 25 μM, ratio 10, PC-3 extracts) came out at 50%. Moreover, the “effect of thymidine on radiosensitization (in words)” value with PC-3 cells [1] was “antagonized by thymidine”. Further, in data set [2], the “substrate for deoxycytidine kinase (in words)” value is reported as “very poor substrates” and the inhibition at 250 µM amounted to 0%.
As to `O=c1[nH]c(=O)n([C@@H]2O[C@H](CO)[C@@H](O)[C@H]2O)cc1Cl` [5-Chlorouridine], the “substrate for U/C kinase of T24 cells (in words)” value with uridine/cytidine kinase is “moderate substrates”. For the same compound, the “% Inhibitation (U/C kinase)” value in the data set with uridine/cytidine kinase (competitor 100 μM, substrate 3H-Cytidine 8.3 μM) is given as 8%; in the data set with uridine/cytidine kinase (competitor 100 μM, substrate 3H-Uridine 16.7 μM), 11%; with uridine/cytidine kinase (competitor 250 μM, substrate 3H-Cytidine 8.3 μM), 21%; in the data set with uridine/cytidine kinase (competitor 250 μM, substrate 3H-Uridine 16.7 μM), 22%; with uridine/cytidine kinase (competitor 500 μM, substrate 3H-Cytidine 8.3 μM), 32%; in the data set with uridine/cytidine kinase (competitor 500 μM, substrate 3H-Uridine 16.7 μM), 24%. Besides, the “% Inhibitation (U/C kinase)” value amounted to 39% with uridine/cytidine kinase (competitor 750 μM, substrate 3H-Cytidine 8.3 μM) and 32% in the data set with uridine/cytidine kinase (competitor 750 μM, substrate 3H-Uridine 16.7 μM). Also, the “radiosensitization of PC-3 cells (in words)” value in the data set with PC-3 cells [1] (PC-3 cells) is listed as “effective radiosensitizer”. In addition, the “radiosensitization of T24 cells (in words)” value with T24 cells is “effective radiosensitizer”; with T24 cells (listed as Chlorouridine), “compared very favorably with the other established Radiosensitizers”.
As for `Nc1nc(=O)n([C@H]2C[C@H](O)[C@@H](CO)O2)cc1I` [5-IdC, 5-Iodo-2′-deoxycytidine], the “substrate for cytidine deaminase (in words)” value at cytidine deaminase (CD) is “good substrates”. For the same compound, the inhibition at 250 µM at cytidine deaminase (CD) (competitor 250 μM, substrate 3H-Deoxycytidine 25 μM, ratio 10, PC-3 extracts) was 60%; in data set [2], 0%. Moreover, the “effect of tetrahydrouridine (H4U) on cytotoxicity / viability (in words)” value is recorded as “antagonized by Tetrahydrouridine” in the data set on PC-3 cells [3] and “reversal by H4U” in the data set on PC-3 cells [3] (human, 72 h). Besides, in the data set with PC-3 cells [3], the “effect of thymidine on cytotoxicity (in words)” value is listed as “antagonized by thymidine”. Moreover, the “% S” value in the data set with PC-3 cells [3] (nucleoside 5 μM, H4U 0 μM) is on record as 15%; in the data set on PC-3 cells [3] (nucleoside 5 μM, H4U 5 μM), 100%; with PC-3 cells [3] (nucleoside 5 μM, H4U 100 μM), 97%; with PC-3 cells [3] (nucleoside 5 μM, H4U 1500 μM), 100%; in the data set on PC-3 cells [3] (nucleoside 10 μM, H4U 5 μM), 53%; with PC-3 cells [3] (nucleoside 10 μM, H4U 100 μM), 73%. For the same compound, the “% S” value with PC-3 cells [3] (nucleoside 10 μM, H4U 1500 μM) was 89%; in the data set on PC-3 cells [3] (nucleoside 20 μM, H4U 5 μM), 30%; in the data set on PC-3 cells [3] (nucleoside 20 μM, H4U 100 μM) it was 65%; in the data set with PC-3 cells [3] (nucleoside 20 μM, H4U 1500 μM), 61%. Further, the “effect of thymidine on radiosensitization (in words)” value in the data set with PC-3 cells [1] is given as “antagonized by thymidine”. The “effect of tetrahydrouridine (H4U) on radiosensitization (in words)” value in the data set on PC-3 cells [1] (listed as 5-Iododeoxycytidine) is “reversal by H4U”; with PC-3 cells [1] (listed as IdC) it was “greater radiosensitization than IdC alone”. In addition, the “substrate for deoxycytidine kinase (in words)” value in data set [2] is listed as “very poor substrates”.
As for `O=C1NC(O)CCN1[C@@H]1O[C@H](CO)[C@@H](O)[C@H]1O` (stereo partly drawn) [Tetrahydrouridine], in the data set with PC-3 cells [3] (no nucleoside, H4U 100 μM alone), the “% S” value came out at 100%. Also, the “% of inhibition of dCMP deaminase of tumor” value at dCMP deaminase (H4U 10 mg/kg, footnote: less than 5% enzyme inhibition) was 0^d %; on dCMP deaminase (H4U 25 mg/kg), 0%; at dCMP deaminase (H4U 50 mg/kg), 0%; at dCMP deaminase (H4U 75 mg/kg), 0%. In addition, the “MDD T/C (mean day of death)” value is 1.25 in the data set with Lewis lung carcinoma (H4U 10 mg/kg with F3methyldC); 1.63 ± 0.07^e in the data set with Lewis lung carcinoma (H4U 25 mg/kg with F3methyldC, mean ± SE); 1.78 ± 0.06 in the data set on Lewis lung carcinoma (H4U 50 mg/kg with F3methyldC, mean ± SE); 1.44 in the data set with Lewis lung carcinoma (H4U 75 mg/kg with F3methyldC). Moreover, the “% Inhibitation (U/C kinase)” value with uridine/cytidine kinase (competitor 1500 μM, substrate 3H-Cytidine 8.3 μM) is reported as 1.5%; in the data set on uridine/cytidine kinase (competitor 1500 μM, substrate 3H-Uridine 16.7 μM), 1.7%.
